Assay results taken from patent US12268700B2, “3-o-sulfo-galactosylceramide analogs as activators of type II NKT cells and uses thereof” (The United States of America, as represented by the …, priority 2018, dated 2025).
“Also recorded” adds a separate entry of the source.

How the values were obtained:
[1] = system: DN32.D3 type I NKT hybridoma; test: In vitro stimulation of type I NKT hybridoma with lipid-loaded plate-coated CD1d monomers, IL-2 ELISA; type: cell-based, murine; conditions: 24 h; for DN32 activation (IL-2 production): 0.5 μg plate-coated CD1d monomers loaded with 4 μM sulfatide or analogues, 10 nM α-GalCer or β-GalCer; for level of activation (amount of IL-2 produced) of DN32.D3, compared with reference lipids: CD1d monomers loaded with 4 μM lipid
Procedure: The hybridoma cell line DN32.D3 created by Brutkiewicz et al. (R. R. Brutkiewicz et al., J. Experimental Medicine, 183: 1913-1919 (1995)) that express the TCR semi-invariant α-chain Vα14Jα18 associated with the Vβ8.2Jβ2.4 chain was used.
(§1) CD monomers were loaded as described above. Flat bottom 96 well plates were coated overnight with 0.5 μg of CD1d monomers loaded with 4 μM of sulfatide or sulfatide-analogues, 10 nM of α-GalCer or with 10 ng/ml of anti-CD3 antibody (Biolegend, San Diego, CA) dissolved in PBS. Plates were then washed in PBS and complete medium. 50×10^3 hybridoma cells in 200 μl of complete medium were plated in presence or not of anti-CD1d blocking antibody 20H2.
(§2) Cells were cultured for 24 h at 37° C., 5% CO2. The production of IL-2 was measured by ELISA from the culture supernatant according to the recommendations of the manufacturer.
(§3) Therefore, well-described type I and type II NKT hybridoma cell lines were used in this experiment. The type I NKT hybridoma DN32.D3 expresses the murine semi-invariant TCR Vα14Jα18 associated with the Vβ8.2/Jβ2.4 chain (Brutkiewicz et al.) and is specific for α-GalCer.

[2] = system: XV19 type II NKT hybridoma; test: In vitro stimulation of type II NKT hybridoma with lipid-loaded plate-coated CD1d monomers, IL-2 ELISA; type: cell-based, mouse; conditions: 24 h, 0.5 μg plate-coated CD1d monomers loaded with 4 μM sulfatide or analogues, 10 nM α-GalCer or β-GalCer
Procedure: The hybridoma XV19 was created by Cardell, S. et al. (J. Experimental Medicine, 182: 993-1004 (1995)) and was provided by Susanna Cardell.
as §1, §2, §3

[3] = system: CT26 (colon cancer) cells; test: CT26 lung metastasis model, lung nodule count; type: in vivo, BALB/c mice; conditions: for number of lung nodules: same day 33 nmol sulfatide or analogues or 500 pmol α-GalCer i.p., counted 8 to 12 days, compared to vehicle, FIG. 5
Procedure: 200 μg of sulfatide of sulfatide-analogues dry powder were resuspended with 40 μl of PBS-Tween20-0.05% and warm at 37° C. for 10 min. Then, 697 μl of DPBS were added to obtain a concentration of 300 μg/ml of lipid. Mice received an i.p injection of 100 μl of sulfatide or analogue mix that is equivalent to […] of lipid. A solution of 500 μM of α-GalCer in DPBS-tween20-0.05% was thawed and sonicated at 60° C. for 2 min and a solution at 10 μM was prepared in DPBS. Mice were injected i.p. with […] (100 μl) of α-GalCer solution.
The CT26 cell were cultured in tumor medium: RPMI 1640 (Life technologies) supplemented with 10% heat inactivated fetal calf serum, 2 mM L-Glutamine, penicillin, streptomycin, 10 mM HEPES, 1/100 vol non-essential amino acids, and 1 mM sodium pyruvate 1/1000 of β-mercaptoethanol. Cells were harvested at 80-85% confluence, detached from plastic with trypsin treatment and resuspended at 5×10^6 cell/ml in DPBS. Mice were injected i.v in the tail vein with 0.5×10^6 CT26 cells (100 μl). The same day, mice were injected i.p. with […] of sulfatide or sulfatide analogues, or 10 nmol of α-GalCer.
WT BALB/c mice were injected intravenously (i.v.) with 0.5×10^6 CT26 (colon cancer) and treated the same day with 33 nmol of sulfatide or sulfatide-analogues or 500 pmol of α-GalCer injected i.p. Lung nodules were counted 8 to 12 days after tumor inoculation according to the results in the monitoring mice. n=10 from 2 independent experiments. The results are shown graphically in FIG. 5.
WT BALB/c mice were inoculated i.v. with 5×10^5 CT26 cells and treated i.p. with 30, 5 or 0.5 nmol of sulfatide or C24:2. The number of nodules in the lung was determined 8 to 12 days after injection.
WT BALB/c mice were injected i.v. with 0.5×10^6 CT26 (colon cancer cells) and treated the same day with […] of sulfatide or C24:2 or 500 pmol of α-GalCer injected i.p. Mice were injected i.p with 200 μg/ml of anti-IFNγ or rat IgG isotype control on day 0, day 1, day 2, day 3, and day 5. Lung nodules were counted 8 to 12 days after tumor inoculation according to the results in the monitoring mice. The results are shown in FIG. 8A (Rat IgG) and FIG. 8B (anti-IFN-γ).

lung mononuclear cells = test: Ex vivo stimulation of lung mononuclear cells with lipid-pulsed BMDC, IL-13 ELISA; type: cell-based, BALB/c mice; conditions: BMDC pulsed with 33 μM lipid, 4 days, FIG. 3; for production of IL-13: ELISA of culture supernatant
Procedure: For the preparation of lung mononuclear cells, lungs were perfused with warm Dulbecco's Phosphate-Buffered Saline (DPBS) (Life Technologies, Frederick, MD) from the heart right ventricle. Single cell suspension was prepared with a Lung Dissociation Kit (Miltenyi Biotec, San Diego, CA) according to the manufacturer's protocol. Lung mononuclear cells (LMNC) were then purified from the cell suspension by a 40%/80% gradient of Percoll (Sigma-Aldrich, St-Louis, MO).
BMDC were prepared by collecting bone marrow cells from femurs and tibias of BALB/c mice in complete medium. Cells were suspended at the concentration of 0.2×10^6/ml in complete medium supplemented with 20 ng/ml of GM-CSF (Peprotech, Rocky Hill, NJ) and 2×10^6 cells were plated per Petri dish (Corning, Tewksbury, MA). Fresh medium supplemented with 20 ng/ml GM-CSF was added at day 3 and refreshed at day 6. At day 8 the cells were harvested, washed in complete medium and suspended at 0.4×10^6/ml in complete medium supplemented with 10 ng/ml of GM-CSF and 1 μg/ml of LPS (Sigma-Aldrich). 4×10^6 cells were plated per Petri dish for 24 h.
200 μg of sulfatide of sulfatide-analogues dry powder was dissolved in 100 μl of DPBS containing 0.5% Tween20 (PBS-Tween) (Avantor performance materials). BMDCs were washed and put at the concentration of 1×10^7/ml and incubated 3 h at 37° C. in presence of 30 μg/ml of sulfatide or sulfatide-analogues or the same volume of PBS-Tween as vehicle control. After washing, 100×10^3 pulsed BMDCs were cultured with 0.5×10^6 lung mononuclear cells in complete medium in flat-bottom 96 well plates for 4 days at 37° C., 5% CO2. When indicated, 10 μg/ml of anti-CD1d antibody (20H2, Harlan, Indianapolis, IN) was added. Supernatants were harvested, and IL-13 production was determined by ELISA according to the recommendations of the manufacturer (eBioscience).
Lung mononuclear cells from WT BALB/c mice were stimulated for 4 days in presence of BMDC (bone marrow derived dendritic cells) pulsed with 33 μM of sulfatide, vehicle control, or 33 μM of the sulfatide analogues pC24:1, pC24:2, or C24:2 in presence or absence of the anti-CD1d blocking antibody 20H2 to confirm the dependency of the IL-13 production on CD1d. The production of IL-13 was measured by ELISA in the culture supernatant. The results are shown in FIG. 3 (n=4, duplicates from 2 independent experiments.

IFN-γ = test: Serum cytokine production after i.p. lipid injection (multiplex analysis); type: in vivo, mice; conditions: bled 3, 6, 12 and 24 h, FIG. 7
Procedure: Mice were injected i.p. with lipids and bled 3, 6, 12 and 24 h after injection. The cytokine production in the serum was determined by multiplex analysis.

[4] = system: CT26 (colon cancer) cells; conditions: murine model of lung metastasis; Ambrosino et al. 2007; cited from earlier work

Row | Molecule | DN32 activation (IL-2 production) [1] | XV19 activation (IL-2 production) [2] | protection from tumor nodules with anti-IFN-γ versus rat IgG isotype control ([3]; 0.5×10^6 CT26 i.v., 30 μmol i.p., anti-IFNγ or rat IgG i.p. on days 0, 1, 2, 3, 5, FIGS. 8A-8B) | number of lung nodules ([3]; 0.5×10^6 CT26 i.v.) | reduction of tumor nodules, dose study ([3]; 5×10^5 CT26 i.v., 30, 5 or 0.5 nmol i.p., result stated for 5 nmol, FIG. 6) | production of IL-13 (lung mononuclear cells) | production of IL-13 in presence of anti-CD1d blocking antibody 20H2 (lung mononuclear cells) | production of IFN-γ in the serum (IFN-γ) | development of lung nodules (previously demonstrated) [4] | level of activation (amount of IL-2 produced) of DN32.D3, compared with reference lipids [1]
1 | CCCCC/C=C\C/C=C\CCCCCCCCCCCCCC(=O)N[C@@H](CO[C@@H]1O[C@H](CO)[C@H](O)[C@H](OS(=O)(=O)O)[C@H]1O)[C@H](O)/C=C/CCCCCCCCCCCCC [C24:2, (2S,3R,4E)-1-(3-O-Sodiumsulfonyl-β-D-galactopyranosyloxy)-2-(N-15Z,18Z-tetracosadienoylamino)octadec-4-en-3-ol] | not DN32.D3; also recorded: not type I | activated only XV19; also recorded: activated only type II NKT cells | dependent on IFN-γ | significantly reduced the number of lung nodules; also recorded: induced a significant reduction of the number of lung nodules | efficient for the reduction of tumor nodules | induced a high production of IL-13 | abrogated | induced a high production of IFN-γ | – | –
2 | CCCCCCCC/C=C\CCCCCCCCCCCCCC(=O)N[C@@H](CO[C@H]1O[C@H](CO)[C@H](O)[C@H](OS(=O)(=O)O)[C@H]1O)[C@H](O)/C=C/CCCCCCCCCCCCC [Sulfatide C24:1, 3-o-sulfo-α-galactosylceramide, d18:1/C24:1, reference compound] | not | activated | – | increased the number of lung nodules | – | – | – | – | increased the development of nodules | –
3 | CCCCC/C=C\C/C=C\CCCCCCCCCCCCCC(=O)N[C@@H](CO[C@@H]1O[C@H](CO)[C@H](O)[C@H](OS(=O)(=O)O)[C@H]1O)[C@H](O)[C@H](O)CCCCCCCCCCCCCC [pC24:2, (2S,3S,4R)-1-(3-O-Sodiumsulfonyl-β-D-galactopyranosyloxy)-2-(N-15Z,18Z-tetracosadienoylamino)octadecan-3,4-diol] | also activated DN32.D3 | activated XV19 | – | did not have any effect | – | induced a high production of IL-13 | abrogated | – | – | lower than that induced by α-GalCer and in the same range as the one induced by β-GalCer
4 | CCCCCCCCCCCCCCCCCCCCCCCCCC(=O)N[C@@H](CO[C@H]1O[C@H](CO)[C@H](O)[C@H](O)[C@H]1O)[C@H](O)[C@H](O)CCCCCCCCCCCCCC [α-GalCer, α-galactosylceramide, reference compound] | activated | not | – | inhibited their development | – | – | – | – | abrogated it | –
5 | (2S,3S,4R)-1-(3-O-Sodiumsulfonyl-β-D-galactopyranosyloxy)-2-(N-15Z-tetracosenoylamino)octadecane-3,4-diol [pC24:1] | also activated DN32.D3 | activated XV19 | – | did not have any effect | – | induced a high production of IL-13 | abrogated | – | – | lower than that induced by α-GalCer and in the same range as the one induced by β-GalCer
6 | β-galactosylceramide [β-GalCer, reference compound] | activated | not | – | – | – | – | – | – | – | –
